From EP3722296B1, “DIHYDRONAPHTHYRIDINES AND RELATED COMPOUNDS USEFUL AS KINASE INHIBITORS FOR THE TREATMENT OF PROLIFERATIVE DISEASES” (Deciphera Pharmaceuticals, LLC, priority 2012, dated 2013)

Legend:
c-KIT D816H kinase = biological target: T1, c-KIT D816H kinase (Homo sapiens, UniProt P10721, D816H); assay: c-KIT D816H Kinase Assay; format: biochemical; conditions: enzymatic assay, ATP 200 µM
T1 construct: The construct contains residues T544-V976 of cKit; GST (N); TEV cleavage site (internal); purchased deCODE Biostructures
Method in brief: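 Mutant cKit enzyme, expressed as a GST-fusion construct carrying an N-terminal tag and TEV site, was mixed with serially diluted compound to start reactions. Activity tracked via NADH consumption, read continuously at 340 nm over 6 hours at 30 °C.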

Phospho-KIT (Tyr719) [1] = assay: GIST48 KIT Western Blot; format: cell-based; conditions: GIST48 cells, 4 hours, serum-free medium; read-out: pKIT suppression by western blot analysi GIST48
Method in brief: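 Phospho-KIT (Tyr719) was immunoblotted on PVDF and imaged in fluorescence mode after ECL Plus, with stripping and reprobing for total KIT. IC50 values were derived from the blot signals.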

c-KIT kinase [2] = biological target: T2, c-KIT kinase (Homo sapiens, UniProt P10721); assay: c-KIT kinase Assay; format: biochemical; parameters: cKIT residues T544-V976; GST (N); TEV cleavage site (internal); purchased deCODE Biostructures; conditions: enzymatic assay, ATP 200 µM; read-out: KIT (wt) IC50
Method in brief: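 This continuous spectrophotometric assay tracked c-KIT kinase turnover through NADH consumption at 340 nm, recorded for 2 hours at 30 °C. The enzyme construct from deCODE Biostructures carried an N-terminal tag, a GST-fusion sequence and a TEV cleavage site. Percent inhibition came from reaction rates over 0 to 1 h relative to a no-compound control, and IC50 values were derived with GraphPad Prism.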
Target sequence in this assay (P10721 544-976): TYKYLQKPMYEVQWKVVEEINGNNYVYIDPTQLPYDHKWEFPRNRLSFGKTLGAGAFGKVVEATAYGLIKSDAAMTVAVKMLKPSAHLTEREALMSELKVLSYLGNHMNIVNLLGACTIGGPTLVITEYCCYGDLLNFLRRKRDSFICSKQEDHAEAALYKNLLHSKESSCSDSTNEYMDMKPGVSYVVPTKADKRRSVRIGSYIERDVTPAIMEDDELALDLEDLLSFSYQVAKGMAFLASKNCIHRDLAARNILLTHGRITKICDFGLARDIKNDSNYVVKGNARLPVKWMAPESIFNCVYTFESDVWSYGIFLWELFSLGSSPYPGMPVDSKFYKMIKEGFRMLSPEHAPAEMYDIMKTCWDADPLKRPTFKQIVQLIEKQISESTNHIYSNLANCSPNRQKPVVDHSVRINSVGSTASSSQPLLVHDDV

Phospho-KIT (Tyr719) [3] = assay: GIST430 KIT Western Blot; format: cell-based; conditions: GIST430 cells, 4 hours, serum-free medium; read-out: pKIT suppression by western blot analysi GIST430
Experimental: (§1) GIST48, GIST430, and GIST882 cells were obtained from J. Fletcher (Brigham and Women's Hospital, Boston, MA). GIST T1 cells were obtained from B. Rubin (Cleveland Clinic, Cleveland, OH) and Professor Takahiro Taguchi (Kochi Medical School, Nankoku, Kochi, Japan). […] GIST430 cells were grown in Ham's F10 medium supplemented with 15% characterized fetal bovine serum (Invitrogen, Carlsbad, CA), 30 mg/L bovine pituitary extract (BD Biosciences, San Jose, CA), 0.5% Mito+ serum extender (BD Biosciences, San Jose, CA), 1 unit/mL penicillin G, 1 µg/ml streptomycin, and 0.29 mg/mL L-glutamine at 37 °C, 5%CO2, 95% humidity. GIST T1 cells were grown in DMEM medium supplemented with 10% characterized fetal bovine serum (Invitrogen, Carlsbad, CA), 1 unit/mL penicillin G, 1 µg/ml streptomycin, and 0.29 mg/mL L-glutamine at 37 °C, 5% CO2, and 95% humidity.
(§2) One hundred fifty thousand cells were added per well in a 24-well tissue-culture treated plate. […] Medium was aspirated, cells were washed with PBS, and serum-free Ham's F10 medium was added. […] Cells were washed with PBS, then lysed. Cell lysates were separated by SDS-PAGE and transferred to PVDF. Phospho-KIT (Tyr719) was detected using an antibody from Cell Signaling Technology (Beverly, MA), ECL Plus detection reagent (GE Healthcare, Piscataway, NJ) and a Molecular Devices Storm 840 phosphorimager in fluorescence mode. Blots were stripped and probed for total KIT using an antibody from Santa Cruz Biotech (Santa Cruz, CA). IC50 values were calculated using Prism software (Graphpad, San Diego, CA).

c-KIT D816V kinase = biological target: T3, c-KIT D816V kinase (Homo sapiens, UniProt P10721, D816V); assay: c-KIT D816V kinase Assay; format: biochemical; conditions: enzymatic assay, ATP 200 uM
T3 construct: residues T544-V976 with N-terminal GST fusion; purchased deCODE Biostructures
Method in brief: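 Coupled assay in which NADH oxidation was tracked as decreasing absorbance at 340 nm, continuously for 5 hours at 30 °C after adding serially diluted compound. Enzyme: cKit residues T544-V976 with N-terminal tag, GST fusion and TEV cleavage site.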

Phospho-KIT (Tyr719) [4] = biological target: T4, Phospho-KIT (Tyr719) (Homo sapiens, UniProt P10721, K642E); assay: GIST882 KIT Western Blot; format: cell-based; conditions: GIST882 cells, 4 hours, serum-free medium; read-out: pKIT suppression by western blot analysi GIST 882
T4 construct: endogenous in cells; host or cells: GIST882
Experimental: as §1
as §2, with “Two” for “One”, “RPMI1640” for “Ham's F10”

c-KIT VVDV kinase = biological target: T5, c-KIT VVDV kinase (Homo sapiens, UniProt P10721, D816V/DEL559-560); assay: cKIT-VVDV kinase Assay; format: biochemical; conditions: enzymatic assay; V559+V560 deletions and D816V mutation
T5 construct: This construct contains residues T544-V976 of cKit; GST (N); TEV cleavage site (internal); purchased deCODE Biostructures
Experimental: In this assay, the oxidation of NADH (measured by decrease in absorbance at 340 nm) was continuously monitored spectrophotometrically. […] The inhibition reaction was started by mixing serial diluted test compound with the above reaction mixture. The absorption at 340 nm was monitored continuously for 5 hours at 30 °C on Synergy 2 plate reader (BioTech). […] The protein construct was prepared by deCODE Biostructures using procedures known in the art. […] This construct is identical to Seq ID no.

c-KIT T670I kinase = biological target: T6, c-KIT T670I kinase (Homo sapiens, UniProt P10721, T670I); assay: c-KIT T670I kinase assay; format: biochemical; conditions: enzymatic assay
T6 construct: The construct contains residues T544-V976 of cKit; GST (N); TEV cleavage site (internal); purchased deCODE Biostructures
Method in brief: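 Enzyme: GST-fused, N-terminally tagged cKit bearing T670I, with TEV cleavage site. Reaction started by mixing compound dilutions with reaction mix; activity read continuously over 5 h at 30 °C as loss of 340 nm absorbance from NADH consumption.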

c-KIT V654A kinase = biological target: T7, c-KIT V654A kinase (Homo sapiens, UniProt P10721, V654A); assay: c-KIT V654A Kinase Assay; format: biochemical; conditions: enzymatic assay, ATP 200 µM
T7 construct: residues T544-V976 with N-terminal GST fusion; purchased deCODE Biostructures
Method in brief: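 Kinase activity tracked by coupled NADH consumption, monitored continuously at 340 nm over 6 h at 30 °C after serially diluted compound was mixed in to start inhibition. Enzyme used was a GST-fused, N-terminally tagged cKIT T544–V976 construct with a TEV cleavage site.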

GIST430 cells = assay: GIST 430 Cell Proliferation Assay; format: cell-based; conditions: Homo sapiens, 120 h, 115 hours + 5 hours resazurin
Experimental: GIST48, GIST430, and GIST882 cells were obtained from J. Fletcher (Brigham and Women's Hospital, Boston, MA). GIST T1 cells were obtained from B. Rubin (Cleveland Clinic, Cleveland, OH) and Professor Takahiro Taguchi (Kochi Medical School, Nankoku, Kochi, Japan). Briefly, GIST48 and GIST 882 cells were grown in RPMI 1640 medium supplemented with 15% characterized fetal bovine serum (Invitrogen, Carlsbad, CA), 1 unit/mL penicillin G, 1 µg/ml streptomycin, and 0.29 mg/mL L-glutamine at 37 °C, 5% CO2, and 95% humidity. GIST430 cells were grown in Ham's F10 medium supplemented with 15% characterized fetal bovine serum (Invitrogen, Carlsbad, CA), 30 mg/L bovine pituitary extract (BD Biosciences, San Jose, CA), 0.5% Mito+ serum extender (BD Biosciences, San Jose, CA), 1 unit/mL penicillin G, 1 µg/ml streptomycin, and 0.29 mg/mL L-glutamine at 37 °C, 5%CO2, 95% humidity. GIST T1 cells were grown in DMEM medium supplemented with 10% characterized fetal bovine serum (Invitrogen, Carlsbad, CA), 1 unit/mL penicillin G, 1 µg/ml streptomycin, and 0.29 mg/mL L-glutamine at 37 °C, 5% CO2, and 95% humidity.
A serial dilution of test compound was dispensed into a 384-well black clear bottom plate (Corning, Corning, NY). Two thousand five-hundred cells were added per well in 50 µL complete growth medium. Plates were incubated for 115 hours at 37°C, 5% CO2, 95% humidity. At the end of the incubation period 10 µL of a 440 µM solution of resazurin (Sigma, St. Louis, MO) in PBS was added to each well and incubated for an additional 5 hours at 37°C, 5% CO2, 95% humidity. Plates were read on a Synergy2 reader (Biotek, Winooski, VT) using an excitation of 540 nm and an emission of 600 nm.

GIST T1 cells = assay: GIST T1 Cell Proliferation Assay; format: cell-based; conditions: Homo sapiens, GISTT1, 72 h, 68 hours + 4 hours resazurin
c-KIT kinase [5] = biological target: T2, c-KIT kinase; assay: Kinase inhibitory profile of marketed inhibitors, c-KIT kinase; format: biochemical
Target sequence in this assay (P10721 26-976): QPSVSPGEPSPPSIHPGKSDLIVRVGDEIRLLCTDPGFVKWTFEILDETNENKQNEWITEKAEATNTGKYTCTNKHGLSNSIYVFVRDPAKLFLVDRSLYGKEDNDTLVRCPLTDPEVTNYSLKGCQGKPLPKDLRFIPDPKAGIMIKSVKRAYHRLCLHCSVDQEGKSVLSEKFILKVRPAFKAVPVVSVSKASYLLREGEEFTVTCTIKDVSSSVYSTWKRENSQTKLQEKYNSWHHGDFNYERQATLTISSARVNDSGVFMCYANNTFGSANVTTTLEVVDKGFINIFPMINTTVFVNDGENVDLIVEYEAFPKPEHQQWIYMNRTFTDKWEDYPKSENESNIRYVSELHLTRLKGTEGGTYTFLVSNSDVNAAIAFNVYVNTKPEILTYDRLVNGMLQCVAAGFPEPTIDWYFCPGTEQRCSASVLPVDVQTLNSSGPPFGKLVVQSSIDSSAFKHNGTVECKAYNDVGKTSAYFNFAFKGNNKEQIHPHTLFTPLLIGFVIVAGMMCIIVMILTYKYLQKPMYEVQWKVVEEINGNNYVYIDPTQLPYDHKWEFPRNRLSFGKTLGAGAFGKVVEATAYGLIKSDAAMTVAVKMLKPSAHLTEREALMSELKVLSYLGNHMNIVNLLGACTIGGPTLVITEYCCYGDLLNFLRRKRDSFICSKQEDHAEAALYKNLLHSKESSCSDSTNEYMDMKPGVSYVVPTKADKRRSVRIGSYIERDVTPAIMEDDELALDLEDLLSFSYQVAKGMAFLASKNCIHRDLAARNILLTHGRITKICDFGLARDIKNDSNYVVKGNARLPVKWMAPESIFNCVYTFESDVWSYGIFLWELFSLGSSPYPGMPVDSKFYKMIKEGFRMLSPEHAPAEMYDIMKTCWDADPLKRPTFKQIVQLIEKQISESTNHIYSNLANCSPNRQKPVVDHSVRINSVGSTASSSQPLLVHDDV

T4 sequence (P10721 26-976 K642E): as the sequence (P10721 26-976) above, with K617E counted along it
T1 sequence (P10721 544-976 D816H): as the sequence (P10721 544-976) above, with D273H counted along it
T6 sequence (P10721 544-976 T670I): as the sequence (P10721 544-976) above, with T127I counted along it
T5 sequence (P10721 with tags, fused parts or gaps DEL559-560/D816V): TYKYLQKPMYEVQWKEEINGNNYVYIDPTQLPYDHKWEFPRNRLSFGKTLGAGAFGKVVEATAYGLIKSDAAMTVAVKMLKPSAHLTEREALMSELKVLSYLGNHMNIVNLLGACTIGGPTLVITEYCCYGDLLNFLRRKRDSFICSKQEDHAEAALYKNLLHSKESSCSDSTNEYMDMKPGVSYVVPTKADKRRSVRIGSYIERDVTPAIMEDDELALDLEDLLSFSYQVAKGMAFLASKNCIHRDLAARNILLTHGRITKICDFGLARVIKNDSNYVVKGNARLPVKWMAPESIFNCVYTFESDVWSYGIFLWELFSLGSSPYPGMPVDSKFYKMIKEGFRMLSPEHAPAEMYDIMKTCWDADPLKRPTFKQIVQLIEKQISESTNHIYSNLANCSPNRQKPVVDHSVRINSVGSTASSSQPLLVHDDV
T7 sequence (P10721 544-976 V654A): as the sequence (P10721 544-976) above, with V111A counted along it
T3 sequence (P10721 544-976 D816V): as the sequence (P10721 544-976) above, with D273V counted along it

| Structure (SMILES) | IC50 (c-KIT D816H kinase) | IC50 (Phospho-KIT (Tyr719) [1]) | IC50 (c-KIT kinase [2]) | IC50 (Phospho-KIT (Tyr719) [3]) | IC50 (c-KIT D816V kinase) | IC50 (Phospho-KIT (Tyr719) [4]) | IC50 (c-KIT VVDV kinase) | IC50 (c-KIT T670I kinase) | IC50 (c-KIT V654A kinase) | IC50 (GIST430 cells) | IC50 (GIST T1 cells) | IC50 (c-KIT kinase [5]) |
| --- | --- | --- | --- | --- | --- | --- | --- | --- | --- | --- | --- | --- |
| CCn1c(=O)c(-c2cc(NC(=O)Nc3cccc4ccccc34)c(F)cc2C)cc2cnc(NC)cc21 [Example 1, 1-(5-(1-ethyl-7-(methylamino)-2-oxo-1,2-dihydro-1,6-naphthyridin-3-yl)-2-fluoro-4-methylphenyl)-3-(naphthalen-1-yl)urea] | 10 to 100 nM | 10 to 100 nM | < 10 nM | < 10 nM | 10 to 100 nM | 100 to 1000 nM | 10 to 100 nM | < 10 nM |  |  |  |  |
| CNc1cc2c(cn1)cc(-c1cc(NC(=O)Nc3csc4ccccc34)c(F)cc1F)c(=O)n2C [Example 14, 1-(benzo[b]thiophen-3-yl)-3-(2,4-difluoro-5-(1-methyl-7-(methylamino)-2-oxo-1,2-dihydro-1,6-naphthyridin-3-yl)phenyl)urea] |  | < 10 nM |  | 10 to 100 nM | 10 to 100 nM | < 10 nM | 10 to 100 nM | < 10 nM |  |  |  |  |
| CCn1c(=O)c(-c2cc(NC(=O)Nc3ccccc3F)c(F)cc2C)cc2cnc(NC)cc21 [Example 38, 1-(5-(1-ethyl-7-(methylamino)-2-oxo-1,2-dihydro-1,6-naphthyridin-3-yl)-2-fluoro-4-methylphenyl)-3-(2-fluorophenyl)urea] | 10 to 100 nM | > 1000 nM | < 10 nM |  | 10 to 100 nM |  |  | 100 to 1000 nM |  | 10 to 100 nM | < 10 nM |  |
| CNc1cc2c(cn1)cc(-c1cc(NC(=O)Nc3cccc(F)c3)c(F)cc1F)c(=O)n2C(C)C [Example 40, 1-(2,4-difluoro-5-(1-isopropyl-7-(methylamino)-2-oxo-1,2-dihydro-1,6-naphthyridin-3-yl)phenyl)-3-(3-fluorophenyl)urea] | 10 to 100 nM |  | < 10 nM |  | 10 to 100 nM |  | 100 to 1000 nM | 100 to 1000 nM | 10 to 100 nM | 100 to 1000 nM | < 10 nM |  |
| CCCS(=O)(=O)Nc1ccc(F)c(C(=O)c2c[nH]c3ncc(-c4ccc(Cl)cc4)cc23)c1F [Vemurafenib®, vemurafenib] |  |  |  |  |  |  |  |  |  |  |  | 1600 nM |

More lines, main results first:

| IC50 (c-KIT D816H kinase) | IC50 (Phospho-KIT (Tyr719) [1]) | IC50 (c-KIT kinase [2]) | IC50 (Phospho-KIT (Tyr719) [3]) | IC50 (c-KIT D816V kinase) | IC50 (Phospho-KIT (Tyr719) [4]) | IC50 (c-KIT VVDV kinase) | IC50 (c-KIT T670I kinase) | IC50 (c-KIT V654A kinase) | Structure (SMILES) | IC50 (GIST430 cells) | IC50 (GIST T1 cells) | IC50 (c-KIT kinase [5]) |
| --- | --- | --- | --- | --- | --- | --- | --- | --- | --- | --- | --- | --- |
| 10 to 100 nM | 10 to 100 nM | < 10 nM | 10 to 100 nM | 10 to 100 nM | 10 to 100 nM | 10 to 100 nM | 10 to 100 nM | < 10 nM | CCn1c(=O)c(-c2cc(NC(=O)Nc3cccc(F)c3)c(F)cc2F)cc2cnc(NC)cc21 [Example 15, 1-(5-(1-ethyl-7-(methylamino)-2-oxo-1,2-dihydro-1,6-naphthyridin-3-yl)-2,4-difluorophenyl)-3-(3-fluorophenyl)urea] |  |  |  |
| 10 to 100 nM | 100 to 1000 nM | < 10 nM | 100 to 1000 nM | 10 to 100 nM | 10 to 100 nM | 10 to 100 nM | 10 to 100 nM | < 10 nM | CCn1c(=O)c(-c2cc(NC(=O)Nc3ccccc3)c(F)cc2F)cc2cnc(NC)cc21 [Example 16, 1-(5-(1-ethyl-7-(methylamino)-2-oxo-1,2-dihydro-1,6-naphthyridin-3-yl)-2,4-difluorophenyl)-3-phenylurea] |  |  |  |
|  |  | < 10 nM |  | 10 to 100 nM |  |  | 10 to 100 nM |  | CCn1c(=O)c(-c2cc(NC(=O)Nc3ccccc3)c(F)cc2Cl)cc2cnc(NCCCOC)cc21 [Example 39, 1-(4-chloro-5-(1-ethyl-7-(3-methoxypropylamino)-2-oxo-1,2-dihydro-1,6-naphthyridin-3-yl)-2-fluorophenyl)-3-phenylurea] | 10 to 100 nM |  |  |
|  | < 10 nM | < 10 nM | 10 to 100 nM | < 10 nM | < 10 nM |  | 10 to 100 nM | 10 to 100 nM | CC(=O)Nc1cc2c(cn1)cc(-c1cc(NC(=O)Nc3ccccc3)c(F)cc1Cl)c(=O)n2C(C)C [Example 86, N-(3-(2-chloro-4-fluoro-5-(3-phenylureido)phenyl)-1-isopropyl-2-oxo-1,2-dihydro-1,6-naphthyridin-7-yl)acetamide] |  | < 10 nM |  |
